What all share (format): functional, cell-based
The test system of one assay is MDA-MB-231. Description: Cytotoxicity against human MDA-MB-231 cells after 2 days by MTT assay. Conditions: MDA-MB-231, 48 h. Background: Formazan colour is commonly taken as a measure of viable cells.
The subject of the next assay is A549. Description: Cytotoxicity against human A549 cells after 2 days by MTT assay. As to conditions: A549, 48 h.
The test system of a further assay is MCF7. Description: Cytotoxicity against human MCF7 cells after 2 days by MTT assay. Conditions: MCF7, 48 h.
A further assay concerns HeLa. Description: Cytotoxicity against human HeLa cells assessed as growth inhibition after 2 days by MTT assay. As to conditions: 48 h.

As to `COc1cccc2c1C(=O)c1c(O)c3c(c(O)c1C2=O)C[C@@](O)(C(=O)CO)C[C@@H]3O[C@H]1C[C@H](N)[C@H](O)[C@H](C)O1` [DOXORUBICIN], the IC50 – broadly, the point on the concentration scale where inhibition reaches its midpoint – in the assay with MDA-MB-231 worked out at 0.91 µM; in the assay with A549, 0.459 µM; in the assay on MCF7, 13.5 µM; in the assay with HeLa it was 0.509 µM.
Consider `C=CCCCC/C=C/C=C/C[C@H](O)[C@H](C)N`, for which the half-inhibitory concentration (IC50) in the assay with MDA-MB-231 is 8.03 µM; with A549, 14.7 µM; in the assay with MCF7, more than 50 µM; in the assay on HeLa, 5.91 µM.
For `CCCCCC/C=C\CC/C=C/C[C@H](O)[C@H](C)N`, the half-inhibitory concentration (IC50) in the assay with MDA-MB-231 came to 12.7 µM; in the assay on A549 it was 7.81 µM; in the assay with MCF7, 13.5 µM; in the assay on HeLa, 39.7 µM.
For `C=CCCCCCC/C=C\C[C@H](O)[C@H](C)N`, the half-inhibitory concentration (IC50) is 10.4 µM in the assay with MDA-MB-231, more than 50 µM in the assay with A549, 15.5 µM in the assay with MCF7 and 19.2 µM in the assay with HeLa.

(Values after ChEMBL document CHEMBL2417385, “A new strategy for the synthesis of crucigasterin A, and cytotoxic activity of this compound and its related analogues” (Bioorg Med Chem Lett, 2013).)
